Assay results: patent US11844776B2, “Composition for treatment and/or prevention of peripheral nerve disorder” (OSAKA CITY UNIVERSITY, priority 2016, dated 2023)

Legend:
[1] = tested on: dorsal root ganglion neurons; assay: Effect of SNJ1945 on axon elongation in mouse dorsal root ganglion neurons; assay type: cell-based; conditions: 200 μM, 24 or 48 hours, vs 1% DMSO
Description: Dorsal root ganglions were aseptically extracted from postnatal mice (3, 10, or 15 days old) under a stereoscopic microscope, and tissue fragments were dispersed by gentle pipetting and then treated with 0.025% trypsin/0.0013% DNaseI (both being final concentrations) at 37° C. for 20 minutes. After centrifugation, a BME culture solution (Gibco) containing 10% equine blood serum was added, and washing was performed. After the enzyme reaction was stopped, a BME culture solution containing 0.0052% DNaseI/10% equine blood serum (both being final concentrations) was added, and pipetting was performed. […] After incubation for another 15 minutes at room temperature, the resulting aggregates were washed well and carefully embedded using glycerol for fluorescence microscope observation (Merck) so as not to break up the aggregates. […] Dorsal root ganglion neurons were also isolated from LIS1 hetero mice (3 days old) and analyzed in the same manner.
Dorsal root ganglion neurons were isolated from 3-day-old mice or 15-day-old mice, and the correlation between the presence or absence of SNJ1945 addition and axon length was analyzed. […]

LIS1 protein [2] = assay: Expression amount of LIS1 protein in dorsal root ganglion neurons by western blotting; assay type: cell-based, mouse; conditions: 200 μM
Description: Dorsal root ganglion neurons were isolated from mice (3 days old or 15 days old) and the expression amount of LIS1 protein was analyzed in the order of time sequence from initiation of culture. Protein extraction was performed by adding 100 μl of a protein-dissolving liquid (30 mM Tris-HCl, pH 6.8, 1.5% sodium dodecyl sulfate (SDS), 0.3% bromophenol blue (BPB), 0.3% 2-mercapto-ethanol (2-ME), and 15% glycerol) per 5×10^4 dorsal root ganglion neurons and further performing ultrasonic treatment to achieve complete solubilization. After the heat treatment at 95° C. for 5 minutes, 1 μl of the obtained protein lysate was separated by 12.5% SDS-acrylamide electrophoresis and subjected to western blotting using anti-LIS1 antibody to detect LIS protein (the left-side figure in FIG. 2). The intensity of the detected band was analyzed (after correction with the intensity of the GAPDH band), and the expression ratio of LIS protein was determined (right-side figure in FIG. 2). […]
After the incubation, the procedures were performed in the same manner as described above in the “Analysis of Expression Amount of LIS1 Protein in Dorsal Root Ganglion Neurons” section to detect LIS protein by western blotting (the left-side figure in FIG. 5). Further, the intensity of the detected band was analyzed to determine the expression ratio of the LIS protein (the right-side figure in FIG. 5).

[3] = tested on: sciatic nerve injury model mice; assay: Histological analysis of sciatic nerves in sciatic nerve injury models; assay type: in vivo, mouse
Description: (§1) To investigate the effect of SNJ1945 on promoting peripheral nerve regeneration, mouse sciatic nerve injury models were prepared and histologically analyzed. The models were used as sciatic nerve injury model mice produced according to the method of Wall et al. (Wall, 1979). More specifically, model mice were produced in the following manner. Four-week-old female mice were subjected to general anesthesia with sevoflurane inhalation anesthesia (Mylan N.V.) and laid down in a prone position. The skin on the femur was incised. The muscle layer was peeled off carefully and quickly so as not to injure the sciatic nerve. The nerve was severed (completely injured) at mid-thigh at one point with an interval of 40 mm from the periphery. The muscle layer and the skin were then sutured and disinfected. The mice were used as complete nerve injury model mice. Administration of SNJ1945 was performed by mixing SNJ-1945 into a diet (CE-2, CLEA Japan, Inc.) and orally administering the mixture continuously to each mouse in an amount of 200 μg of SNJ1945/per gram of body weight/day. Mice that were subjected to the same complete nerve injury and maintained on a diet not containing SNJ1945 (CE-2, CLEA Japan, Inc.) were used as a control group.
For histological analysis, after the mice were sacrificed by cervical dislocation, sciatic nerves were removed and fixed in 4% paraformaldehyde for 24 hours. After the paraformaldehyde was replaced with PBS, the sciatic nerves were embedded in paraffin. The tissue block was cut into 5-μm-thick sections and each tissue section was adhered onto a glass slide. For hematoxylin and eosin staining, each tissue section was 1) deparaffinized, 2) washed with water, 3) stained with Mayer's or Carrazzi's hematoxylin, 4) lightly washed with running water, 5) allowed to develop color, 6) stained with an eosin solution for 1 minute, and 7) subjected to dehydration, clearing, and embedding; and morphologically observed under an optical microscope.
Samples for observation under an electron microscope were prepared in the following manner. Sciatic nerves were removed in the same manner as above and then placed in a fixative (2.5% glutaraldehyde). Ten minutes after being placed in the fixative, the sciatic nerves were removed and placed in several drops of the fixative that had been dropped on a thick plastic sheet beforehand, and cut into thin sections. Post-fixation was performed using an aqueous osmium tetroxide solution. Next, free water contained in the tissue was replaced with ethyl alcohol. In order to make ultrathin sections, the tissue was embedded in an epoxy resin, and tissue sections were produced with an ultramicrotome. Observation was performed using a transmission electron microscope (Hitachi Ltd.: H-7500).

[4] = tested on: sciatic nerve injury model mice; assay: Functional analysis of sciatic nerves in sciatic nerve injury models; assay type: in vivo, mouse
Description: as §1, with “Mice that were subjected to the same complete nerve injury and maintained on a diet not containing SNJ1945 (CE-2, CLEA Japan, Inc.) were used as a control group.” left out
To further investigate the peripheral nerve regeneration promotion effect of SNJ1945, motor function of sciatic nerve injury model mice was evaluated based on the sciatic function index (SFI) and print length factor (PLI) using Footprint (Bain et al., 1989).

LIS1 protein [5] = conditions: disclosed in WO2012/074120; based on calpain inhibitory activity; cited from earlier work
[6] = complete nerve injury model, oral in diet 200 μg/g body weight/day, 1 week after administration, vs control group

COCCOCCOC(=O)N[C@@H](CC(C)C)C(=O)N[C@@H](Cc1ccccc1)C(=O)C(=O)NC1CC1 [Compound 17, ((1S)-1-((((1S)-1-Benzyl-2,3-dioxo-3-(cyclopropylamino)propyl)amino)carbonyl)-3-methylbutyl)carbamic acid 5-methoxy-3-oxapentyl ester]
axon elongation (axon length) ([1]; neurons from 3-day-old mice): axon elongation promotion effect | axon elongation (axon length) ([1]; neurons from 15-day-old mice): significant axon elongation promotion effect | expression amount of LIS1 protein (LIS1 protein [2]; neurons from 3-day-old mice): not able to significantly increase the expression amount | expression amount of LIS1 protein (LIS1 protein [2]; neurons from 15-day-old mice): significantly increased the expression amount of LIS1 | myelin regeneration in sciatic nerves after nerve cell degeneration ([3]; administration started 1 week after severance, analyzed 1 month after severance): significantly high myelin regeneration | recovery of myelin (electron microscope) [3, 6]: recovery of myelin | recovery of sciatic nerves (hematoxylin and eosin staining) [3, 6]: significant recovery of sciatic nerves | number of myelin whose recovery was recognized (regeneration of myelin in sciatic nerves) ([3]; complete nerve injury model, oral in diet, FIG. 24, vs control group): significantly high regeneration of myelin | condition of the paw ([4]; complete injury model, one month after administering, vs control group mouse): recovered to the extent that the mouse could grasp the cage | recovery of complete nerve injury models (motor function) ([4]; continuous administration): further promoted recovery | effect of amplifying LIS1 protein (LIS1 protein [5]): has an effect of amplifying LIS1 protein
